The NIST ThermoML archive (doi:10.1021/je9007662)

Experiment: mean ionic activity coefficient (dimensionless); mn = molality of the nth substance listed, in mol/kg
Details: 298.15 K, 101 kPa, Liquid

[Br-].[Cs+] [cesium bromide] + O
Details | mean ionic activity coefficient
m1 = 0.1 | 0.75
m1 = 0.2 | 0.689
m1 = 0.3 | 0.652
m1 = 0.4 | 0.625
m1 = 0.5 | 0.604
m1 = 0.6 | 0.587
m1 = 0.7 | 0.573
m1 = 0.8 | 0.561
m1 = 0.9 | 0.551
m1 = 1 | 0.542
m1 = 1.2 | 0.526
m1 = 1.4 | 0.514
m1 = 1.6 | 0.504
m1 = 1.8 | 0.495
m1 = 2 | 0.488
m1 = 2.5 | 0.475
m1 = 3 | 0.466
m1 = 3.5 | 0.461
m1 = 4 | 0.46
m1 = 4.5 | 0.46
m1 = 5 | 0.463
